Test results from patent US6737383B1, “Herbicidal oxadiazolidines” (priority 1999, dated 2004).

Key:
rice = experiment: Test B flood test rice; format: in vivo, Oryza sativa
How it was run: (§1)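 Read-out is a visual response score from 0 (no effect) to 10 (complete control), assigned by comparison with untreated controls. Treatment was applied at the 2-leaf stage, and plants stayed in the greenhouse for twelve to sixteen days before scoring.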

rape = experiment: Test B pre/postemergence rape; format: in vivo, Brassica napus
How it was run: (§2)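 Test chemicals in a non-phytotoxic solvent mixture with surfactant were sprayed preemergence onto planted seeds and postemergence onto plants 2 to 18 cm tall (1- to 4-leaf stage). After twelve to sixteen days in a greenhouse, injury was visually rated against untreated controls from 0 (no effect) to 10 (complete control).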

bamyardgrass = experiment: Test B flood test barnyardgrass; format: in vivo, Echinochloa crus-galli
How it was run: as §1

smallflower flatsedge = experiment: Test B flood test smallflower flatsedge; format: in vivo, Cyperus difformis
How it was run: as §1

duck salad = experiment: Test B flood test duck salad; format: in vivo, Heteranthera limosa
How it was run: as §1

surinam grass = experiment: Test B pre/postemergence surinam grass; format: in vivo, Brachiaria decumbens
How it was run: as §2

velvetleaf = experiment: Test B pre/postemergence velvetleaf; format: in vivo, Abutilon theophrasti
How it was run: as §2

blackgrass = experiment: Test B pre/postemergence blackgrass; format: in vivo, Alopecurus myosuroides
How it was run: as §2

corn = experiment: Test B pre/postemergence corn; format: in vivo, Zea mays
How it was run: as §2

crabgrass = experiment: Test B pre/postemergence crabgrass; format: in vivo, Digitaria sanguinalis
How it was run: as §2

purple nutsedge = experiment: Test B pre/postemergence purple nutsedge; format: in vivo, Cyperus rotundus
How it was run: as §2

soybean = experiment: Test B pre/postemergence soybean; format: in vivo, Glycine max
How it was run: as §2

wild oat = experiment: Test B pre/postemergence wild oat; format: in vivo, Avena fatua
How it was run: as §2

cocklebur = experiment: Test B pre/postemergence cocklebur; format: in vivo, Xanthium strumarium
How it was run: as §2

bedstraw = experiment: Test B pre/postemergence bedstraw; format: in vivo, Galium aparine
How it was run: as §2

sugar beet = experiment: Test B pre/postemergence sugar beet; format: in vivo, Beta vulgaris
How it was run: as §2

wheat = experiment: Test B pre/postemergence wheat; format: in vivo, Triticum aestivum
How it was run: as §2

[1] = Rate 62 g/ha, headed Pre-emergence (flood test species), scale 0 to 10 (0 no effect, 10 complete control)
[2] = Rate 125 g/ha, Pre-emergence, flood test species, scale 0 to 10 where 0 is no effect and 10 is complete control
[3] = Rate 250 g/ha, Pre-emergence, flood-test species, scale 0 to 10, 0 is no effect, 10 is complete control
[4] = Rate 500 g/ha, Pre-emergence, flood test species, scale 0 to 10 (0 no effect, 10 complete control)
[5] = Preemergence, Rate 62 g/ha, scale of 0 to 10 where 0 is no effect and 10 is complete control
[6] = Preemergence, Rate 250 g/ha, scale of 0 to 10 where 0 is no effect and 10 is complete control
[7] = Preemergence, Rate 500 g/ha, scale of 0 to 10 where 0 is no effect and 10 is complete control
[8] = Rate 62 g/ha, Postemergence, scale 0 to 10 (0 no effect, 10 complete control)
[9] = Rate 125 g/ha, Postemergence, scale of 0 to 10 where 0 is no effect and 10 is complete control
[10] = Rate 250 g/ha, Postemergence, scale of 0 to 10 where 0 is no effect and 10 is complete control
[11] = Rate 500 g/ha, Postemergence, scale 0 to 10, 0 no effect, 10 complete control

CC(C)N(C(=O)n1oc(=O)n(C2CCCCO2)c1=O)c1ccc(F)cc1 (stereo not shown) [Compound 311]
Rice plant response rating (rice; [1]): 0 | Rice plant response rating (rice; [2]): 0 | Rice plant response rating (rice; [3]): 0 | Rice plant response rating (rice; [4]): 0 | Rape plant response rating (rape; [5]): 0 | Rape plant response rating (0 to 10 scale) (rape; Preemergence, Rate 125 g/ha): 0 | Rape plant response rating (rape; [6]): 0 | Rape plant response rating (rape; [7]): 0 | Rape plant response rating (rape; [8]): 0 | Rape plant response rating (rape; [9]): 0 | Plant response rating, Rape (rape; [10]): 0 | Barnyardgrass plant response rating (bamyardgrass; [1]): 0 | Barnyardgrass plant response rating (bamyardgrass; [2]): 0 | Barnyardgrass plant response rating (bamyardgrass; [3]): 0 | Barnyardgrass plant response rating (bamyardgrass; [4]): 0 | S. Flatsedge plant response rating (smallflower flatsedge; [1]): 0 | S. Flatsedge plant response rating (smallflower flatsedge; [2]): 0 | S. Flatsedge plant response rating (smallflower flatsedge; [3]): 0 | S. Flatsedge plant response rating (smallflower flatsedge; [4]): 0 | Ducksalad plant response rating (duck salad; [1]): 0 | Ducksalad plant response rating (duck salad; [2]): 0 | Ducksalad plant response rating (duck salad; [3]): 0 | Ducksalad plant response rating (duck salad; [4]): 0 | B. signalgrass plant response rating (surinam grass; [5]): 0 | B. signalgrass plant response rating (0 to 10 scale, 0 is no effect, 10 is complete control) (surinam grass; Preemergence, Rate 125 g/ha): 0 | B. signalgrass plant response rating (surinam grass; [6]): 0 | B. signalgrass plant response rating (surinam grass; [7]): 0 | B. signalgrass plant response rating (surinam grass; [8]): 0 | B. signalgrass plant response rating (surinam grass; [9]): 0 | Plant response rating, B. signalgrass (surinam grass; [10]): 0 | B. signalgrass plant response rating (surinam grass; [11]): 0 | Velvetleaf plant response rating (velvetleaf; [5]): 0 | Velvetleaf plant response rating (0 to 10 scale) (velvetleaf; Preemergence, Rate 125 g/ha): 0 | Velvetleaf plant response rating (velvetleaf; [6]): 0 | Velvetleaf plant response rating (velvetleaf; [7]): 0 | Velvetleaf plant response rating (velvetleaf; [8]): 0 | Velvetleaf plant response rating (velvetleaf; [9]): 0 | Plant response rating, Velvetleaf (velvetleaf; [10]): 0 | Blackgrass plant response rating (blackgrass; [5]): 0 | Blackgrass plant response rating (0 to 10 scale) (blackgrass; Preemergence, Rate 125 g/ha): 0 | Blackgrass plant response rating (blackgrass; [6]): 0 | Blackgrass plant response rating (blackgrass; [7]): 0 | Blackgrass plant response rating (blackgrass; [8]): 0 | Blackgrass plant response rating (blackgrass; [9]): 0 | Plant response rating, Blackgrass (blackgrass; [10]): 0 | Blackgrass plant response rating (blackgrass; [11]): 0 | Corn plant response rating (corn; [5]): 0 | Corn plant response rating (0 to 10 scale) (corn; Preemergence, Rate 125 g/ha): 0 | Corn plant response rating (corn; [6]): 0 | Corn plant response rating (corn; [7]): 0 | Corn plant response rating (corn; [8]): 0 | Corn plant response rating (corn; [9]): 0 | Plant response rating, Corn (corn; [10]): 0 | Corn plant response rating (corn; [11]): 0 | Crabgrass plant response rating (crabgrass; [5]): 0 | Crabgrass plant response rating (0 to 10 scale) (crabgrass; Preemergence, Rate 125 g/ha): 0 | Crabgrass plant response rating (crabgrass; [6]): 0 | Crabgrass plant response rating (crabgrass; [7]): 0 | Crabgrass plant response rating (crabgrass; [8]): 0 | Crabgrass plant response rating (crabgrass; [9]): 0 | Plant response rating, Crabgrass (crabgrass; [10]): 0 | Nutsedge plant response rating (purple nutsedge; [5]): 0 | Nutsedge plant response rating (0 to 10 scale) (purple nutsedge; Preemergence, Rate 125 g/ha): 0 | Nutsedge plant response rating (purple nutsedge; [6]): 0 | Nutsedge plant response rating (purple nutsedge; [7]): 0 | Nutsedge plant response rating (purple nutsedge; [8]): 0 | Nutsedge plant response rating (purple nutsedge; [9]): 0 | Plant response rating, Nutsedge (purple nutsedge; [10]): 0 | Soybean plant response rating (soybean; [5]): 0 | Soybean plant response rating (0 to 10 scale) (soybean; Preemergence, Rate 125 g/ha): 0 | Soybean plant response rating (soybean; [6]): 0 | Soybean plant response rating (soybean; [7]): 0 | Soybean plant response rating (soybean; [8]): 2 | Soybean plant response rating (soybean; [9]): 2 | Plant response rating, Soybean (soybean; [10]): 3 | Wild oats plant response rating (wild oat; [5]): 0 | Wild oats plant response rating (0 to 10 scale) (wild oat; Preemergence, Rate 125 g/ha): 0 | Wild oats plant response rating (wild oat; [6]): 0 | Wild oats plant response rating (wild oat; [7]): 0 | Wild oats plant response rating (wild oat; [8]): 0 | Wild oats plant response rating (wild oat; [9]): 0 | Plant response rating, Wild oats (wild oat; [10]): 0 | Cocklebur plant response rating (cocklebur; [5]): 0 | Cocklebur plant response rating (0 to 10 scale) (cocklebur; Preemergence, Rate 125 g/ha): 0 | Cocklebur plant response rating (cocklebur; [6]): 0 | Cocklebur plant response rating (cocklebur; [7]): 0 | Cocklebur plant response rating (cocklebur; [8]): 0 | Cocklebur plant response rating (cocklebur; [9]): 0 | Plant response rating, Cocklebur (cocklebur; [10]): 0 | Cocklebur plant response rating (cocklebur; [11]): 0 | Bedstraw plant response rating (bedstraw; [5]): 0 | Bedstraw plant response rating (0 to 10 scale) (bedstraw; Preemergence, Rate 125 g/ha): 0 | Bedstraw plant response rating (bedstraw; [6]): 0 | Bedstraw plant response rating (bedstraw; [7]): 0 | Bedstraw plant response rating (bedstraw; [8]): 0 | Bedstraw plant response rating (bedstraw; [9]): 0 | Plant response rating, Bedstraw (bedstraw; [10]): 0 | Bedstraw plant response rating (bedstraw; [11]): 2 | Sugarbeets plant response rating (sugar beet; [5]): 0 | Sugarbeets plant response rating (0 to 10 scale) (sugar beet; Preemergence, Rate 125 g/ha): 0 | Sugarbeets plant response rating (sugar beet; [6]): 0 | Sugarbeets plant response rating (sugar beet; [7]): 0 | Sugarbeets plant response rating (sugar beet; [8]): 0 | Sugarbeets plant response rating (sugar beet; [9]): 0 | Plant response rating, Sugarbeets (sugar beet; [10]): 0 | Wheat plant response rating (wheat; [5]): 0 | Wheat plant response rating (0 to 10 scale) (wheat; Preemergence, Rate 125 g/ha): 0 | Wheat plant response rating (wheat; [6]): 0 | Wheat plant response rating (wheat; [7]): 0 | Wheat plant response rating (wheat; [8]): 0 | Wheat plant response rating (wheat; [9]): 0 | Plant response rating, Wheat (wheat; [10]): 0
